We go through one substance from US12611423B2, “Medical use of tafoxiparin” (DILAFOR AB, priority 2022, dated 2026).

One assay deals with factor Xa. As to the kind of experiment: antifactor Xa activity of tafoxiparin. The following applies: definition of tafoxiparin. Type of assay: biochemical.
Assay [1] in a line: anticoagulant activity (descriptive).
Another assay relates to factor IIa. As to the kind of experiment: antifactor IIa activity of tafoxiparin. The class given is biochemical. The following applies: definition of tafoxiparin.
Chain of factor IIa (P01008 33-464): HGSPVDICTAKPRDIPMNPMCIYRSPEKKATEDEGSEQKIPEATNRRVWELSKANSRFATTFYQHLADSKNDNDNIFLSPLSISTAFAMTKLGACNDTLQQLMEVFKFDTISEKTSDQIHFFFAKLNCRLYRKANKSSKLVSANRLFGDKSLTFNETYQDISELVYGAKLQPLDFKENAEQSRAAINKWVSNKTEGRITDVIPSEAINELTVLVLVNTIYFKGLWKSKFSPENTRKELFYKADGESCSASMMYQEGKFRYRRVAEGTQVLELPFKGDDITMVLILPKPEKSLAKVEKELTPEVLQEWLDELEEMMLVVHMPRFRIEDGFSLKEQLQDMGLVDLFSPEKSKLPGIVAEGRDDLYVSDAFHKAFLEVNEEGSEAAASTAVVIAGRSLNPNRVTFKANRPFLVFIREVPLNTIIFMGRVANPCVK

Chain of factor Xa (P01008 33-464 partner): as the sequence (P01008 33-464) above
Chain of factor Xa (P00742 235-488 limits assumed, further chain): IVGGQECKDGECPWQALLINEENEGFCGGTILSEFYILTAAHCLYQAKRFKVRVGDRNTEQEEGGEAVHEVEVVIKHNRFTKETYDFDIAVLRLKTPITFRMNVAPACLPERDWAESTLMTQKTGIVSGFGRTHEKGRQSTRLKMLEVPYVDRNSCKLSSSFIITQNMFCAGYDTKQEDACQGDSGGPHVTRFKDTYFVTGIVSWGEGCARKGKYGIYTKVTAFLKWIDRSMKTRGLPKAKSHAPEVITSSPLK

On to tafoxiparin, for which the “antifactor Xa activity” value with factor Xa is recorded as “less than 10 IU/mg”. The anticoagulant activity result in assay [1] is recorded as “essentially no anticoagulant activity”. Also, in the assay on factor IIa, the “antifactor Ila activity” value is on record as “less than 10 IU/mg”.
